Here are results for 2 compounds from PMC4372254, “Unlocking the Diversity of Alkaloids in Catharanthus roseus: Nuclear Localization Suggests Metabolic Channeling in Secondary Metabolism” (Chemistry & Biology, 2015).

The target of test [1] is T1, THAS (tetrahydroalstonine synthase) (Catharanthus roseus, UniProt A0A0F6SD02).
T1 construct: His-tagged, vector pOPINF, expressed in E. coli Rosetta 2 pLysS, HisTrap purified
T1 sequence (A0A0F6SD02 1-356): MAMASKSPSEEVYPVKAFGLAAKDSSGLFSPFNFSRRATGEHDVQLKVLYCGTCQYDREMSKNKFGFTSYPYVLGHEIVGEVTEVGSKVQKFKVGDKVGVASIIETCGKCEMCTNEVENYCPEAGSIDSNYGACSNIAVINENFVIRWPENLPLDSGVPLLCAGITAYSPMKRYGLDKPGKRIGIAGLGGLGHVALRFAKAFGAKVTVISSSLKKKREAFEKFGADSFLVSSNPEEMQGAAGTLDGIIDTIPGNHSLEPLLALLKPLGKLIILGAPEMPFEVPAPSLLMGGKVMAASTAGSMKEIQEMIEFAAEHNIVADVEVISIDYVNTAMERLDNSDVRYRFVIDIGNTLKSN
Nature of the test: isothermal titration calorimetry. In kind it is binding. Background: In ITC the heat of successive injections is recorded.

Test [2] has as its target T2, SGD (strictosidine glucosidase) (Catharanthus roseus, UniProt Q9M7N7).
T2 construct: recombinant, purified as THAS, expression system of Yerkes et al. 2008
Nature of the test: in situ deglycosylation, […] min incubation. In kind it is biochemical. Conditions: strictosidine aglycone formed.

For `NC(=O)C1=CN([C@@H]2O[C@H](COP(=O)(O)OP(=O)(O)OC[C@H]3O[C@@H](n4cnc5c(N)ncnc54)[C@H](OP(=O)(O)O)[C@@H]3O)[C@@H](O)[C@H]2O)C=CC1` [NADPH], the Kd in test [1] is 1500 ± 100 nM.
Regarding `C=C[C@H]1[C@H](O[C@@H]2O[C@H](CO)[C@@H](O)[C@H](O)[C@H]2O)OC=C(C(=O)OC)[C@H]1C[C@@H]1NCCc2c1[nH]c1ccccc21` [strictosidine], the “in situ deglycosylation, 10 min incubation” value in test [2] is reported as “strictosidine was completely converted to the aglycone”.

Broadly, the Kd is the concentration at which binding is half-saturated. Read a high Kd as weaker binding.
